Key:
[1] = test system: CHIKV nsP1 guanylation activity; assay: Guanylation assay, covalent nsP1-GTP-680 formation, SDS-PAGE fluorescence; settings: 100 μM analog, Fig 4 data; for Percent of Control: single replicates, scaled guanylation
CHIKV nsP1 [2] = assay: HTS validation potency repeatability, EC50 of GTP analogs in two independent FP runs
[3] = target: CHIKV nsP1 GTP binding site; assay: FP competition assay, displacement of GTP-Bodipy by GTP and RNA cap analogs (apparent Ki / EC50); settings: read-out: Average Ki; apparent Ki, 500 nM nsP1, 10 nM GTP-Bodipy, 1 hour 25°C
CHIKV nsP1 [4] = assay: FP Kd determination of GTP-Bodipy and ATP-Bodipy with purified CHIKV nsP1; settings: fluorescence polarization, nsP1 titrated 3 μM to 1 nM, 1 hour 25°C

Compound: C[n+]1cn([C@@H]2O[C@H](COP(=O)([O-])OP(=O)(O)OP(=O)(O)OC[C@H]3O[C@@H](n4cnc5c(N)ncnc54)[C@H](O)[C@@H]3O)[C@@H](O)[C@H]2O)c2nc(N)[nH]c(=O)c21 [me^7-GpppA]
- Average POC ([1]; mean of replicates): 75.4802
- Percent of Control ([1]; listed as m7-GpppA2, 100 µM): 75.9437
- Percent of Control ([1]; listed as m7-GpppA3, 100 µM): 80.9779
- Percent of Control ([1]; listed as m7-GpppA, 100 µM): 69.519
- Geometric Mean Potency (CHIKV nsP1 [2]; first set of rows): 4.163
- Geometric Mean Potency (CHIKV nsP1 [2]; second set of rows): 4.105
- Ki [3]: 7 µM

Compound: Bodipy-γ-phosphate-labeled ATP analog [ATP-Bodipy]
- Kd (CHIKV nsP1 [4]; 5 nM ATP-Bodipy): 2.1 µM

Compound: Bodipy-γ-phosphate-labeled GTP analog [GTP-Bodipy]
- Kd (CHIKV nsP1 [4]; 10 nM GTP-Bodipy): 0.1 µM

From article PMC4948833, “A Sensitive and Robust High-Throughput Screening Assay for Inhibitors of the Chikungunya Virus nsP1 Capping Enzyme” (PLoS ONE, 2016)
